{"source": "patent US5324648A", "about": "“Substituted isocoumarins as serine protease inhibitors and anti-inflammatory agents” (Georgia Tech Research Corporation, priority 1992, dated 1994)", "key": {"human granzyme A": {"target": "T1, human granzyme A (Homo sapiens, UniProt P12544)", "T1 construct": "human cytotoxic lymphocyte granzyme A; endogenous in cells; host or cells: human cytotoxic lymphocytes", "T1 sequence (P12544 29-262)": "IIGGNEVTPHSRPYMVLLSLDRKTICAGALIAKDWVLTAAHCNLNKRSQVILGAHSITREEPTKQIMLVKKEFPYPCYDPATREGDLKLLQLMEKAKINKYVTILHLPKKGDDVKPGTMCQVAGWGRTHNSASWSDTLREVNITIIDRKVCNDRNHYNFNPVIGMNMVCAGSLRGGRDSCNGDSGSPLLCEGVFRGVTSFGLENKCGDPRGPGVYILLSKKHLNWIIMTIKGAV", "experiment": "Inactivation rate of human granzyme A", "type": "biochemical", "conditions": "Table VII; pH 7.5, 25° C; [I] 0.4 to 45 μM; read-out: kobs/[I]", "description": "(§1) Inactivation rates of serine proteases by substituted isocoumarins were measured by the incubation method. An aliquot of inhibitor (25 or 50 μl) in Me2 SO was added to a buffered enzyme solution (0.01-2.3 μM) to initiate the inactivation. Aliquots (50 μl) were withdrawn at various intervals and the residual enzymatic activity was measured. Me2 SO concentration in the reaction mixture was 8-12% (v/v). 0.1 Hepes, 0.01M CaCl2, pH 7.5 buffer was utilized for trypsin and coagulation enzymes. 0.1M Hepes, 0.5M NaCl, pH 7.5 was utilized for other serine proteases. The inhibitor concentrations are shown in all the tables. Peptide thioesters or peptide nitroanilides with appropriate sequence were used as substrates for various serine proteases. All peptide thioester hydrolysis rates were measured with assay mixtures containing 4,4'-dithiodipyridine (ε324 =19800M^-1 cm^-1; Grasetti & Murray, Arch. Biochem. Biophys. 119, pp 41-49 (1967)). Peptide 4-nitroanilide nitroanilide hydrolysis was measured at 410 nm (ε410 =8800M^-1 cm^-1; Erlanger et al., Arch. Biochem. Biophys. 95, pp 271-278 (1961)). First order inactivation rate constant (kobs) were obtained from plots of ln (vt /vo) vs time, and the correlation coefficients were greater than 0.98.\n^a Inactivation rates were measured at 0.1M Hepes, 0.01M CaCl2,\npH 7.5, 8% Me2 SO and 25° C. by incubation method. ZArg-SBzl\n(74-85 μM) was used as the substrate to monitor the residual enzymatic"}, "C2a": {"target": "T2, C2a (Homo sapiens, UniProt P06681)", "T2 construct": "active fragments C2a, Bb", "T2 sequence (P06681 244-752 limits assumed)": "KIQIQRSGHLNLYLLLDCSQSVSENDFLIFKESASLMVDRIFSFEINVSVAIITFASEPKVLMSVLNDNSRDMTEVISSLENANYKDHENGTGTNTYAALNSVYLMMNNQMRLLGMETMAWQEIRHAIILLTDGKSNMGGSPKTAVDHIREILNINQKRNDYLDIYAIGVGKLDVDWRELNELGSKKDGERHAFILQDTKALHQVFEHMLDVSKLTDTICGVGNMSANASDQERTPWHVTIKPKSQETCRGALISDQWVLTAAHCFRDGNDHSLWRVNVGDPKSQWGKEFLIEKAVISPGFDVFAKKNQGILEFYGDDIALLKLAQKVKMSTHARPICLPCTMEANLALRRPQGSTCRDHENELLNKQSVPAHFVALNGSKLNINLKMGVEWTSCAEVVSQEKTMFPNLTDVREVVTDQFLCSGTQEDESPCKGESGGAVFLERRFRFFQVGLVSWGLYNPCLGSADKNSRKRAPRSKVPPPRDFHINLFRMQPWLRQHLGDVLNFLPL", "experiment": "Inactivation rate of complement fragment C2a", "type": "biochemical", "conditions": "Table II; pH 7.5, 25° C; [I] 0.19 to 1.25 mM; read-out: kobs/[I]", "description": "as §1\n^a Conditions were 0.1M Hepes, 0.5M NaCl, pH 7.5, 8-10% Me2 SO\nand 25° C. Inactivation rates were measured by incubation method. […]"}, "human factor VIIa": {"target": "T3, human factor VIIa (Homo sapiens, UniProt P08709)", "T3 construct": "human factor VIIa", "T3 sequence (P08709 213-466 limits assumed)": "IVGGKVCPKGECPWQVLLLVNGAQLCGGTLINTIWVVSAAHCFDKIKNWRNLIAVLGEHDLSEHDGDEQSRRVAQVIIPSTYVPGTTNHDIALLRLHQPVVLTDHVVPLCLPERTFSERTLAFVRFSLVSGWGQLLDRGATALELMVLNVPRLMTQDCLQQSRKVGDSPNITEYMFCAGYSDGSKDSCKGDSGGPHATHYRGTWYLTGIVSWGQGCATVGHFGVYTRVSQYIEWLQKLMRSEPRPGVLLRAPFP", "T3 sequence (P08709 61-212 partner limits assumed)": "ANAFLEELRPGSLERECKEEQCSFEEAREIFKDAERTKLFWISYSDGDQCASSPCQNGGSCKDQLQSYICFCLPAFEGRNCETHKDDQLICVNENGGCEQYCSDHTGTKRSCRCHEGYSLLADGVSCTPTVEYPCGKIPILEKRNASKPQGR", "experiment": "Inactivation rate of human factor VIIa", "type": "biochemical", "conditions": "Table I; pH 7.5, 25° C; [I] 5 to 44 μM; read-out: kobs/[I]"}, "[1]": {"experiment": "Spontaneous hydrolysis in rabbit plasma", "type": "in vitro ADME", "conditions": "for half-life: rabbit plasma, read-out: t1/2 for spontaneous hydrolysis"}, "[2]": {"experiment": "Activated partial thromboplastin time (APTT), rabbit plasma"}, "human thrombin": {"target": "T4, human thrombin (Homo sapiens, UniProt P00734)", "T4 construct": "human thrombin", "experiment": "Inactivation rate of human thrombin", "type": "biochemical", "conditions": "Table VIII; pH 7.5, 25° C; [I] 1.2-54 μM; read-out: kobs/[I]", "summary_of_the_method": "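Incubation method: enzyme (0.01-2.3 μM) mixed with inhibitor in 0.1M Hepes, 0.01M CaCl2, pH 7.5, 8% Me2SO, 25° C; residual activity sampled over time with peptide thioester or 4-nitroanilide substrates. kobs from ln(vt/vo) vs time plots.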"}, "human lung chymase": {"target": "T5, human lung chymase (Homo sapiens, UniProt P23946)", "T5 construct": "human lung chymase; from tissue; host or cells: human lung", "T5 sequence (P23946 22-247)": "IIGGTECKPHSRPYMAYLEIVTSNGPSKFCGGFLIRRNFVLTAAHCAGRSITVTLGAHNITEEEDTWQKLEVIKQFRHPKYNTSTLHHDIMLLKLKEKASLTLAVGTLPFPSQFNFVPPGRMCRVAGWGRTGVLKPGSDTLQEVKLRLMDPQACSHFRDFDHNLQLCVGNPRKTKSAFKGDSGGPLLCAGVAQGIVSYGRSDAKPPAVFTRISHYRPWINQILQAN", "experiment": "Inactivation rate of human lung chymase", "type": "biochemical", "conditions": "Table V; pH 7.5, 25° C; [I] 0.38 mM; read-out: kobs/[I]", "description": "as §1\n(§2) ^a Inactivation rates were measured at 0.1M Hepes, 0.5M NaCl, pH 7.5,\n(§3) 8-12% Me2 SO and 25° C. by incubation method. An aliquot of […]"}, "[3]": {"target": "T6, rat mast cell protease II (Rattus norvegicus, UniProt P00770)", "T6 construct": "rat mast cell protease II; from tissue; host or cells: rat mast cells (by the enzyme's name only)", "T6 sequence (P00770 21-247)": "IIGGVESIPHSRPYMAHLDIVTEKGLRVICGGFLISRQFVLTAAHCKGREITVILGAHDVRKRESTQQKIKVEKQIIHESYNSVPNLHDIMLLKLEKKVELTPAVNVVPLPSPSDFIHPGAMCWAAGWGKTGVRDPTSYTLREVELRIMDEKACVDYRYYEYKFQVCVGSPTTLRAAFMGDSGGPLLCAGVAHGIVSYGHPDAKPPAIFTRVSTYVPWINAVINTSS", "experiment": "Inactivation rate of rat mast cell protease II", "type": "biochemical", "conditions": "Table V; pH 7.5, 25° C; [I] 0.007 to 0.013 mM; read-out: kobs/[I]", "description": "as §1, §2, §3"}, "human skin chymase": {"target": "T7, human skin chymase (Homo sapiens, UniProt P23946)", "T7 construct": "human skin chymase; from tissue; host or cells: human skin", "T7 sequence (P23946 22-247)": "as the sequence (P23946 22-247) above", "experiment": "Inactivation rate of human skin chymase", "type": "biochemical", "conditions": "Table V; pH 7.5, 25° C; [I] 0.41 to 0.53 mM; read-out: kobs/[I]", "description": "as §1, §2, §3"}, "pig plasma [4]": {"tested_on": "pig plasma", "experiment": "Activated partial thromboplastin time (APTT), pig plasma", "conditions": "[I] 16 μM"}, "pig plasma [5]": {"tested_on": "pig plasma", "experiment": "Prothrombin time (PT), pig plasma"}}, "data": [{"smiles": "O=c1oc(Cl)c(Cl)c2ccccc12", "note": "[3,4-dichloroisocoumarin, reference compound]", "values": [{"measurement": "kinact/KI", "setting": "human granzyme A", "value": 50, "unit": "M⁻¹ s⁻¹"}]}, {"smiles": "N=C(N)SCCOc1oc(=O)c2ccccc2c1Cl", "note": "[3-(2-isothiureidoethoxy)-4-chloroisocoumarin]", "values": [{"measurement": "kinact/KI", "setting": "C2a", "value": 1.4, "unit": "M⁻¹ s⁻¹"}]}, {"smiles": "NCCCOc1oc(=O)c2ccccc2c1Cl", "note": "[3-(3-aminopropoxy)-4-chloroisocoumarin]", "values": [{"measurement": "kinact/KI", "setting": "human granzyme A", "value": 2010, "unit": "M⁻¹ s⁻¹"}]}, {"smiles": "N=C(N)SCCCOc1oc(=O)c2ccccc2c1Cl", "note": "[3-(3-isothiureidopropoxy)-4-chloroisocoumarin]", "values": [{"measurement": "kinact/KI", "setting": "human granzyme A", "value": 18400, "unit": "M⁻¹ s⁻¹"}, {"measurement": "kinact/KI", "setting": "C2a", "value": 0.8, "unit": "M⁻¹ s⁻¹"}, {"measurement": "kinact/KI", "setting": "human factor VIIa", "value": 450, "unit": "M⁻¹ s⁻¹"}]}, {"smiles": "N=C(N)SCCCOc1oc(=O)c2cc(N)ccc2c1Cl", "note": "[7-amino-4-chloro-3-(3-isothiureidopropoxy)isocoumarin]", "values": [{"measurement": "kinact/KI", "setting": "human granzyme A", "value": 6750, "unit": "M⁻¹ s⁻¹"}, {"measurement": "stability in rabbit plasma (in words)", "setting": "[1]", "value": "fairly stable"}, {"measurement": "half-life", "setting": "[1]", "value": 2.33, "unit": "h"}, {"measurement": "APTT", "setting": "[2]; [I] 33 μM", "value": 68.6, "unit": "s"}, {"measurement": "kinact/KI", "setting": "human factor VIIa", "value": 430, "unit": "M⁻¹ s⁻¹"}, {"measurement": "kinact/KI", "setting": "human thrombin", "value": 760, "unit": "M⁻¹ s⁻¹"}]}, {"smiles": "CCOc1oc(=O)c2cc(NC(=N)N)ccc2c1Cl", "note": "[7-guanidino-3-ethoxy-4-chloroisocoumarin, 7-guanidino-4-chloro-3-ethoxyisocoumarin]", "values": [{"measurement": "kinact/KI", "setting": "human granzyme A", "value": 6850, "unit": "M⁻¹ s⁻¹"}, {"measurement": "kinact/KI", "setting": "human lung chymase", "value": 540, "unit": "M⁻¹ s⁻¹"}, {"measurement": "half-life", "setting": "[1]", "value": 0.07, "unit": "h"}, {"measurement": "APTT", "setting": "[2]; [I] 31 μM", "value": 60.5, "unit": "s"}, {"measurement": "kinact/KI", "setting": "[3]", "value": 1100, "unit": "M⁻¹ s⁻¹"}, {"measurement": "kinact/KI", "setting": "human skin chymase", "value": 33, "unit": "M⁻¹ s⁻¹"}, {"measurement": "kinact/KI", "setting": "human factor VIIa", "value": 2200, "unit": "M⁻¹ s⁻¹"}]}, {"smiles": "N=C(N)Nc1ccc2c(Cl)c(OCCc3ccccc3)oc(=O)c2c1", "note": "[7-guanidino-4-chloro-3-(2-phenylethoxy)isocoumarin]", "values": [{"measurement": "kinact/KI", "setting": "[3]", "value": 4100, "unit": "M⁻¹ s⁻¹"}, {"measurement": "kinact/KI", "setting": "human skin chymase", "value": 22, "unit": "M⁻¹ s⁻¹"}]}, {"smiles": "N=C(N)SCCOc1oc(=O)c2cc(NC(=O)Nc3ccccc3)ccc2c1Cl", "note": "[PhNHCONH-CiTEtOIC, 7-(phenylcarbamoylamino)-4-chloro-3-(2-isothiureidoethoxy)isocoumarin]", "values": [{"measurement": "APTT", "setting": "pig plasma [4]", "value": "> 120", "unit": "s"}, {"measurement": "PT", "setting": "pig plasma [5]; [I] 16 μM", "value": 28.5, "unit": "s"}, {"measurement": "PT", "setting": "pig plasma [5]; [I] 32 μM", "value": 58.3, "unit": "s"}, {"measurement": "kinact/KI", "setting": "human thrombin", "value": 22400, "unit": "M⁻¹ s⁻¹"}]}]}
